ChEMBL document CHEMBL1743141, “Membrane transporters in drug development” (Nat Rev Drug Discov, 2010)
Square brackets hold non-standard residues; d marks the D form. Peptide text beside a SMILES is read from it. Sar = CNCC(=O)O

Tests used:
Type in all cases: ADME
[1] = target: T1, Solute carrier family 22 member 2 (Homo sapiens, UniProt O15244); assay: Substrates of transporters of clinical importance in the absorption and disposition of drugs, OCT2
T1 sequence (O15244 whole entry): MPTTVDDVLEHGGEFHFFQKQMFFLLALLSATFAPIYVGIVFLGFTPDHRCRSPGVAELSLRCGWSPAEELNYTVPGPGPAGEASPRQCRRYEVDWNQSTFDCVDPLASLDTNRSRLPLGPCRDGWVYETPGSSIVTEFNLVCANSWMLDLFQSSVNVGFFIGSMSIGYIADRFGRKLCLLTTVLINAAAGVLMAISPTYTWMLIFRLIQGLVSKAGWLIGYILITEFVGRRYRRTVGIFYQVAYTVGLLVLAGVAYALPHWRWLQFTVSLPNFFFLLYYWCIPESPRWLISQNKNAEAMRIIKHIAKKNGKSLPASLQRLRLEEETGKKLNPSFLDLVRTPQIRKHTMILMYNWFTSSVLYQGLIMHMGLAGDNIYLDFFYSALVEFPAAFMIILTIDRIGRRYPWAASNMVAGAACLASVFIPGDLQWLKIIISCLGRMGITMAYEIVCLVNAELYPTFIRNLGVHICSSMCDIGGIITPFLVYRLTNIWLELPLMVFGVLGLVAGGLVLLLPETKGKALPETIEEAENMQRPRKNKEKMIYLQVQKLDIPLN

[2] = target: T2, Solute carrier family 15 member 1 (Homo sapiens, UniProt P46059); assay: Substrates of transporters of clinical importance in the absorption and disposition of drugs, PEPT1
T2 sequence (P46059 whole entry): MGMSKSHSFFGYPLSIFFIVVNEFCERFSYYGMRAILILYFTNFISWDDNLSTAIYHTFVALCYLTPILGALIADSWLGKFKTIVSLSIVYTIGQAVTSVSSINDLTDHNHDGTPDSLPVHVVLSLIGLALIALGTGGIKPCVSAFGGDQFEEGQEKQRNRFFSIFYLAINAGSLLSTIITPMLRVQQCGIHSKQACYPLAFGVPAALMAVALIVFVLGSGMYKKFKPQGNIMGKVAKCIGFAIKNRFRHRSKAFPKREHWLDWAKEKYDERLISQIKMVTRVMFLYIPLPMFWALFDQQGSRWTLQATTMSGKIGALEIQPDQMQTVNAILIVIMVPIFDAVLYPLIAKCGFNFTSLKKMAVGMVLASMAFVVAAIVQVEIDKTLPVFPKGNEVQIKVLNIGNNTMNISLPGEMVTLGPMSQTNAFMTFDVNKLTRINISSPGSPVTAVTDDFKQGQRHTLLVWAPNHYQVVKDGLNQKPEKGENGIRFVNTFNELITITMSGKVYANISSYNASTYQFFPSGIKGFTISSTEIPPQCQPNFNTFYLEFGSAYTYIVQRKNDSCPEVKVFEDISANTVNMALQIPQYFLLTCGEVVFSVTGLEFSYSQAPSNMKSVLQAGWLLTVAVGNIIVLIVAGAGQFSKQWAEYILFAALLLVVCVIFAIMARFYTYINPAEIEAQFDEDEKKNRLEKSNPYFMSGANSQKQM

[3] = target: T3, Solute carrier family 15 member 2 (Homo sapiens, UniProt Q16348); assay: Substrates of transporters of clinical importance in the absorption and disposition of drugs, PEPT2
T3 sequence (Q16348 whole entry): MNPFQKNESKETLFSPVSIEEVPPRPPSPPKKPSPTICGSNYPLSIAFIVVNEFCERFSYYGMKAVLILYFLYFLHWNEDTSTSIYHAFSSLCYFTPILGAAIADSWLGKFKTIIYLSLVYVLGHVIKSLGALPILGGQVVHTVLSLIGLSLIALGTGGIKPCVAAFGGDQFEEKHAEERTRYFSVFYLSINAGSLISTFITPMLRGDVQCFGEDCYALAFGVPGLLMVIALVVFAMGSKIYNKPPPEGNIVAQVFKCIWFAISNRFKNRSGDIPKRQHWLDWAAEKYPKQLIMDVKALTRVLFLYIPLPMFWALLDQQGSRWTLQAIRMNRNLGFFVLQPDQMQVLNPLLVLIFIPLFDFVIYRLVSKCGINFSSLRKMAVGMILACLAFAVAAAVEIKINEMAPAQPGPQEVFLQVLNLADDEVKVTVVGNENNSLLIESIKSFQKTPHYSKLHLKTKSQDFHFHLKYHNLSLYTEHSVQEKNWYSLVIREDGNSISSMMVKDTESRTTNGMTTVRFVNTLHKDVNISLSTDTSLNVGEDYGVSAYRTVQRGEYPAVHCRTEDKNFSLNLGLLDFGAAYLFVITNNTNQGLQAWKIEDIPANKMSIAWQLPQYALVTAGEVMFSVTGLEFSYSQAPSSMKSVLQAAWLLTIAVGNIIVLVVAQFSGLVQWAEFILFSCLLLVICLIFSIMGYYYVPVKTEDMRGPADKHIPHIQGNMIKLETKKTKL

[4] = target: T4, Solute carrier organic anion transporter family member 1B3 (Homo sapiens, UniProt Q9NPD5); assay: Substrates of transporters of clinical importance in the absorption and disposition of drugs, OATP1B3
T4 sequence (Q9NPD5 whole entry): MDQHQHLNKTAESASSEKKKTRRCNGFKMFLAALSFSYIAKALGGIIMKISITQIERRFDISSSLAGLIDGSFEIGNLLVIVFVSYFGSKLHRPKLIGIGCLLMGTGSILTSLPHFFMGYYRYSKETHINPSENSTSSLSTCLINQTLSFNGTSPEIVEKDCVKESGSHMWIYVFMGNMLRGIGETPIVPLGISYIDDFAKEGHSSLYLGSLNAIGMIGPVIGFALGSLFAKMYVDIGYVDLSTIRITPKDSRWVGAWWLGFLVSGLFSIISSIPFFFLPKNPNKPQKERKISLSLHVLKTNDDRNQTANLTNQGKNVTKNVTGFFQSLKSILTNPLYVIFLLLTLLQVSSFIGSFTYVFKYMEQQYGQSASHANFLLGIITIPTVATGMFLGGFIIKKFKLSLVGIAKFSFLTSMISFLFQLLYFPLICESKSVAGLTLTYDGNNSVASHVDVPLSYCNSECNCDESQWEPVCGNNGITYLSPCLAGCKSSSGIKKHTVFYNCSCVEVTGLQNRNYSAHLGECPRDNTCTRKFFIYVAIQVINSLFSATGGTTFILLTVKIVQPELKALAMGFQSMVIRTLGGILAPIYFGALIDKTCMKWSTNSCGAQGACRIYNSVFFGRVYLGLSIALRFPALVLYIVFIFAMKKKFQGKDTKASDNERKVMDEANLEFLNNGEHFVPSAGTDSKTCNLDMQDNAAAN

[5] = target: T5, Solute carrier organic anion transporter family member 1B1 (Homo sapiens, UniProt Q9Y6L6); assay: Substrates of transporters of clinical importance in the absorption and disposition of drugs, OATP1B1
T5 sequence (Q9Y6L6 whole entry): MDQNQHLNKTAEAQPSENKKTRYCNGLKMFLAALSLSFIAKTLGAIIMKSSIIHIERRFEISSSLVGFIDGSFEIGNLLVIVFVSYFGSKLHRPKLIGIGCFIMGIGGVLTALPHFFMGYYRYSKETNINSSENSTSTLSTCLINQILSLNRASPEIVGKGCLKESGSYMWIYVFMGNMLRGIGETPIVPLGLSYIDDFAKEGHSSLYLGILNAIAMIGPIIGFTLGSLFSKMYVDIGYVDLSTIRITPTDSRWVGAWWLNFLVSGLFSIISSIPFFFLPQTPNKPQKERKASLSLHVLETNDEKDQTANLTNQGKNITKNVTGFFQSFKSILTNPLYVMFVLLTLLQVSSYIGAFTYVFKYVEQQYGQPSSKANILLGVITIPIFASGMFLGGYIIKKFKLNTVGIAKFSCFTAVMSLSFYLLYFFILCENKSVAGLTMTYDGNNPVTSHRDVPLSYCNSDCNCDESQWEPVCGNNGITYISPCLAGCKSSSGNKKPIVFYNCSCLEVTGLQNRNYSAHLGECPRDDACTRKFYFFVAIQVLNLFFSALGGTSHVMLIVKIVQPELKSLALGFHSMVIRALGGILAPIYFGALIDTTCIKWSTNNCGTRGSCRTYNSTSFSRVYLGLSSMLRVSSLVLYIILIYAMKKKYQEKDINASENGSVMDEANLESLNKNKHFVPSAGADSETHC

[6] = target: T6, Solute carrier organic anion transporter family member 1A2 (Homo sapiens, UniProt P46721); assay: Substrates of transporters of clinical importance in the absorption and disposition of drugs, OATP1A2
T6 sequence (P46721 whole entry): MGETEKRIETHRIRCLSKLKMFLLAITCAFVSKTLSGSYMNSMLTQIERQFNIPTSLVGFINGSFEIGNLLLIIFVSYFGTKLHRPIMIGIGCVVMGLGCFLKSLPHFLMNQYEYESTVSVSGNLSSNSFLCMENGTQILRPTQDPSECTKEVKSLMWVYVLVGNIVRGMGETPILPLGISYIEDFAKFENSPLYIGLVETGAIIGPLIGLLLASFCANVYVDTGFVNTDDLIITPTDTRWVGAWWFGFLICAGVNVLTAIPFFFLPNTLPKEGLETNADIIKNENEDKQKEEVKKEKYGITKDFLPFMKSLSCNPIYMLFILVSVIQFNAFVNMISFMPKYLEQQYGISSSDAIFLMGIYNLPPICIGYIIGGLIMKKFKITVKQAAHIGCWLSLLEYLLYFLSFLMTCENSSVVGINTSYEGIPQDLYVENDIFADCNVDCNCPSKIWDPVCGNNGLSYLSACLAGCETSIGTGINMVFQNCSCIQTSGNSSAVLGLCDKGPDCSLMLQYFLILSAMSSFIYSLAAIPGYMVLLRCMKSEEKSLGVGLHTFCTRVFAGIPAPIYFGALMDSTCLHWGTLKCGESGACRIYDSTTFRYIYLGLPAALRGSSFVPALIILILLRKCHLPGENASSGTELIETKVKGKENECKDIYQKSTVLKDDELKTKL

For c1cnc2cc3c(cc2n1)[C@@H]1CNC[C@H]3C1 [VARENICLINE], the Activity [1] was “transporter substrate”.

With CNC(=C[N+](=O)[O-])NCCSCc1ccc(CN(C)C)o1 [RANITIDINE] the Activity [1] was “transporter substrate”.

With CC(C)C[C@H](NC(=O)[C@@H](O)[C@H](N)Cc1ccccc1)C(=O)O [UBENIMEX] the Activity [2] was “transporter substrate” and the Activity [3] was “transporter substrate”.

For CCCc1nc2c(C)cc(-c3nc4ccccc4n3C)cc2n1Cc1ccc(-c2ccccc2C(=O)O[C@@H]2O[C@H](C(=O)O)[C@@H](O)[C@H](O)[C@H]2O)cc1 [TELMISARTAN GLUCURONIDE], the Activity [4] was “transporter substrate”.

With CCCc1nc2c(C)cc(-c3nc4ccccc4n3C)cc2n1Cc1ccc(-c2ccccc2C(=O)O)cc1 the Activity [4] was “transporter substrate”.

In the case of CC1=C(C(=O)O)N2C(=O)[C@@H](NC(=O)[C@H](N)c3ccc(O)cc3)[C@H]2SC1 [CEFADROXIL], the Activity [2] is reported as “transporter substrate” and the Activity [3] is reported as “transporter substrate”.

In the case of CC(C)[C@H](N)C(=O)OCCOCn1cnc2c(=O)[nH]c(N)nc21 [VALACYCLOVIR], the Activity [2] is reported as “transporter substrate” and the Activity [3] is reported as “transporter substrate”.

With CN(CC(=O)O)C(=O)CN [GLYCYLSARCOSINE] (H-Gly-[Sar]-OH) the Activity [2] was “transporter substrate” and the Activity [3] was “transporter substrate”.

With NCC(=O)CCC(=O)O [AMINOLEVULINIC ACID] the Activity [2] was “transporter substrate” and the Activity [3] was “transporter substrate”.

With CCOC(=O)[C@H](CCc1ccccc1)N[C@@H](C)C(=O)N1CCC[C@H]1C(=O)O the Activity [2] was “transporter substrate” and the Activity [3] was “transporter substrate”.

CCOc1cc(CC(=O)N[C@@H](CC(C)C)c2ccccc2N2CCCCC2)ccc1C(=O)O [REPAGLINIDE] was tested, and the Activity [5] was “transporter substrate”.

For NC12CC3CC(CC(C3)C1)C2 [AMANTADINE], the Activity [1] was “transporter substrate”.

In the case of C=CC1=C(C)/C(=C/c2[nH]c(Cc3[nH]c(/C=C4\NC(=O)C(C)=C4C=C)c(C)c3CCC(=O)O)c(CCC(=O)O)c2C)NC1=O [BILIRUBIN], the Activity [5] is reported as “transporter substrate”.

In the case of C[C@@H]1O[C@@H](O[C@H]2C[C@@H](O)[C@]3(CO)[C@H]4[C@H](O)C[C@]5(C)[C@@H](C6=CC(=O)OC6)CC[C@]5(O)[C@@H]4CC[C@]3(O)C2)[C@H](O)[C@H](O)[C@H]1O [OUABAIN], the Activity [6] is reported as “transporter substrate”.

With C[C@H]1COc2c(N3CCN(C)CC3)c(F)cc3c(=O)c(C(=O)O)cn1c23.C[C@H]1COc2c(N3CCN(C)CC3)c(F)cc3c(=O)c(C(=O)O)cn1c23.O [LEVOFLOXACIN] the Activity [6] was “transporter substrate”.

N=C(N)NC(=O)c1nc(Cl)c(N)nc1N [AMILORIDE] was tested, and the Activity [1] was “transporter substrate”.

CC(C)NCC(O)COc1cccc2[nH]ccc12 (stereo not given) [PINDOLOL] was tested, and the Activity [1] was “transporter substrate”.

In the case of C=CC1=C(C)/C(=C/c2[nH]c(Cc3[nH]c(/C=C4\NC(=O)C(C)=C4C=C)c(C)c3CCC(=O)O[C@@H]3O[C@H](C(=O)O)[C@@H](O)[C@H](O)[C@H]3O)c(CCC(=O)O[C@@H]3O[C@H](C(=O)O)[C@@H](O)[C@H](O)[C@H]3O)c2C)NC1=O [BILIRUBIN GLUCURONIDE], the Activity [5] is reported as “transporter substrate”.

CSCC[C@H](NC(=O)[C@H](Cc1ccc(OS(=O)(=O)O)cc1)NC(=O)[C@@H](N)CC(=O)O)C(=O)NCC(=O)N[C@@H](Cc1c[nH]c2ccccc12)C(=O)N[C@@H](CCSC)C(=O)N[C@@H](CC(=O)O)C(=O)N[C@@H](Cc1ccccc1)C(N)=O [SINCALIDE] was tested, and the Activity [4] was “transporter substrate”.
